The values that follow come from ChEMBL document CHEMBL1201862, “PubChem BioAssay data set” (2004).

The Ki is a measure of affinity in units of concentration, obtained from inhibition or displacement. One may read the IC50 as the concentration that inhibits the measured activity by half. As usually defined, the EC50 is the concentration needed to bring the measured effect to its halfway point. By AC50 is commonly meant the midpoint of the concentration-response curve, whichever way the signal moves. Usually CC50 stands for the concentration that lowers cell viability or growth by half.

The target of experiment [1] is LIM domain kinase 1 (Homo sapiens, UniProt P53667). As to the kind of experiment: Navigating the Kinome. Panel member name: LIMK1. It counts as functional.
The target of experiment [2] is Serine/threonine-protein kinase PLK1 (Homo sapiens, UniProt P53350). In kind it is functional.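 Also: PLK1 measured as one member of a kinome-wide profiling panel.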
Sequence of Serine/threonine-protein kinase PLK1 (P53350 whole entry): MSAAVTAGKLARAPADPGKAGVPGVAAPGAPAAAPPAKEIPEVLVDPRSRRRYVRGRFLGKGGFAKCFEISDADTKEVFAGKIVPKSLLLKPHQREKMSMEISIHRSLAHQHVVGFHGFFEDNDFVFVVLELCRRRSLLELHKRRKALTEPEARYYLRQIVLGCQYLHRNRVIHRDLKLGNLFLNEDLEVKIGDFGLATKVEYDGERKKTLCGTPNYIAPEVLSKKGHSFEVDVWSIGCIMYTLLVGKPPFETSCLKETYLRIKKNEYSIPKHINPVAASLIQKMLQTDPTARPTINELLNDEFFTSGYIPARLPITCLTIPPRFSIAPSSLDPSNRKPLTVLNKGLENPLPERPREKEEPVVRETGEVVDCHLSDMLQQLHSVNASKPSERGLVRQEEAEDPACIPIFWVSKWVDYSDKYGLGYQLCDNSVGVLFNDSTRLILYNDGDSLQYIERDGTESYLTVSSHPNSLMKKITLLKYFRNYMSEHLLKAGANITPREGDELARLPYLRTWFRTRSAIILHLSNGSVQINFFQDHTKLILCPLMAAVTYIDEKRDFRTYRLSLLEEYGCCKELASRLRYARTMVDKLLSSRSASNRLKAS
Experiment [3] addresses STE20-like serine/threonine-protein kinase (Homo sapiens, UniProt Q9H2G2). It counts as functional.
For experiment [4], the target named is Tyrosine-protein kinase receptor TYRO3 (Homo sapiens, UniProt Q06418). In kind it is functional.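 Also: TYRO3 value obtained as one member of a kinome-wide profiling panel.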
Sequence of Tyrosine-protein kinase receptor TYRO3 (Q06418 whole entry): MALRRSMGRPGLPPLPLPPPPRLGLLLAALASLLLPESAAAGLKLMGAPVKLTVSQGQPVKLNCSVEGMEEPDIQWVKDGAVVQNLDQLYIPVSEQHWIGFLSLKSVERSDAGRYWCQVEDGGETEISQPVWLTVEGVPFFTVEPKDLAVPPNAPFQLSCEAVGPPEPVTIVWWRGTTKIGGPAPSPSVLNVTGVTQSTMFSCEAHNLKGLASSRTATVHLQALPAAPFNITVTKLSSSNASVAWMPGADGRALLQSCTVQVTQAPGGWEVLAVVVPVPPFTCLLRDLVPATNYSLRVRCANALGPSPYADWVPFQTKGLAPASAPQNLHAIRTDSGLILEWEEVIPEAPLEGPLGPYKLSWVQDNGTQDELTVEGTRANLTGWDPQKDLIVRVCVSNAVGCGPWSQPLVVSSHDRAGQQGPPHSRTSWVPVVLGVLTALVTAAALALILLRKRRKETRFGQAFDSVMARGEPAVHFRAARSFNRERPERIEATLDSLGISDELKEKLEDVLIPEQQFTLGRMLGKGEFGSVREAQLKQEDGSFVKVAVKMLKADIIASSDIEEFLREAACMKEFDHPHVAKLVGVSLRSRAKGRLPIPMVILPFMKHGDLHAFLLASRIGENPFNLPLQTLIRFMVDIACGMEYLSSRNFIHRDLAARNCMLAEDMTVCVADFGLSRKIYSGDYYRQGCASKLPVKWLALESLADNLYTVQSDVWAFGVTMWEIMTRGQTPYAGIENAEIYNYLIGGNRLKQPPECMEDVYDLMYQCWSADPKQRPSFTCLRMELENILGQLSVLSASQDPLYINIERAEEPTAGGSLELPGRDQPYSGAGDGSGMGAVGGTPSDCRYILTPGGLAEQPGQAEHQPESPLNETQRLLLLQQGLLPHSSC
The target of experiment [5] is Activin receptor type-1 (Homo sapiens, UniProt Q04771). As to the kind of experiment: Navigating the Kinome. Panel member name: ACVR1. In kind it is functional.
The target of experiment [6] is Calcium/calmodulin-dependent protein kinase type 1 (Homo sapiens, UniProt Q14012). It counts as functional.
For experiment [7], the target named is Proto-oncogene tyrosine-protein kinase ROS (Homo sapiens, UniProt P08922). It counts as functional.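 Also: ROS1 tested as one member of a kinome-wide kinase panel.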
The target in experiment [8] is Receptor-type tyrosine-protein kinase FLT3 (Homo sapiens, UniProt P36888). It counts as functional.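 Also: FLT3 was tested as one member of a kinome-wide kinase panel.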
Experiment [9] has as its target Mitogen-activated protein kinase kinase kinase kinase 2 (Homo sapiens, UniProt Q12851). In kind it is functional.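 Also: measured as one member of a kinome-wide kinase panel, with MAP4K2 as the panel entry.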
Experiment [10] deals with Mitogen-activated protein kinase 14 (Homo sapiens, UniProt Q16539). It counts as functional.
Sequence of Mitogen-activated protein kinase 14 (Q16539 whole entry): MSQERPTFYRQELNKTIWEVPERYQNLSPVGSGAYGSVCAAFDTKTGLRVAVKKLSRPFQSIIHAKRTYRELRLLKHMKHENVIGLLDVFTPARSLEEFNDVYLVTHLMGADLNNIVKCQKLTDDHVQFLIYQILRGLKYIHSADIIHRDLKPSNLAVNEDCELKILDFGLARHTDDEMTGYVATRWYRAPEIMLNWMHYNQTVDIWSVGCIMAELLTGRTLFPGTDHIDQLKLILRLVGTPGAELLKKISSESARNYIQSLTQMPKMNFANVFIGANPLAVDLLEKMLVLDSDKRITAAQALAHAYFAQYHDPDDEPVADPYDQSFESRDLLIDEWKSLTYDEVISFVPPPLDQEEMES
Experiment [11] addresses Activated CDC42 kinase 1 (Homo sapiens, UniProt Q07912). The experiment is described as follows: Navigating the Kinome. Panel member name: ACK1. It counts as functional.
The target in experiment [12] is Tyrosine-protein kinase Lck (Homo sapiens, UniProt P06239). It counts as functional.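 Also: lck was assayed as one member of a kinase panel.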
Experiment [13] concerns the target Induced myeloid leukemia cell differentiation protein Mcl-1 (Homo sapiens, UniProt Q07820). The experiment is described as follows: MCL1-BIM BH3 interaction inhibitors, dose response, biochemical, fluorescence polarization, BIM-BH3 peptide, 1536-well (AID 2217). Background: Fluorescence polarisation rises when a labelled molecule tumbles more slowly, as on binding a larger partner.

Experiment [14] deals with 14-3-3 protein gamma (Homo sapiens, UniProt P61981). As to the kind of experiment: modulators of 14-3-3 gamma client binding – dose response (AID 711). It counts as functional.
Experiment [15] has as its target 5-hydroxytryptamine receptor 1A (Homo sapiens, UniProt P08908). It counts as functional.
Experiment [16] has as its target T1, Insulin-degrading enzyme (Homo sapiens, UniProt P14735).
T1 sequence (P14735 whole entry): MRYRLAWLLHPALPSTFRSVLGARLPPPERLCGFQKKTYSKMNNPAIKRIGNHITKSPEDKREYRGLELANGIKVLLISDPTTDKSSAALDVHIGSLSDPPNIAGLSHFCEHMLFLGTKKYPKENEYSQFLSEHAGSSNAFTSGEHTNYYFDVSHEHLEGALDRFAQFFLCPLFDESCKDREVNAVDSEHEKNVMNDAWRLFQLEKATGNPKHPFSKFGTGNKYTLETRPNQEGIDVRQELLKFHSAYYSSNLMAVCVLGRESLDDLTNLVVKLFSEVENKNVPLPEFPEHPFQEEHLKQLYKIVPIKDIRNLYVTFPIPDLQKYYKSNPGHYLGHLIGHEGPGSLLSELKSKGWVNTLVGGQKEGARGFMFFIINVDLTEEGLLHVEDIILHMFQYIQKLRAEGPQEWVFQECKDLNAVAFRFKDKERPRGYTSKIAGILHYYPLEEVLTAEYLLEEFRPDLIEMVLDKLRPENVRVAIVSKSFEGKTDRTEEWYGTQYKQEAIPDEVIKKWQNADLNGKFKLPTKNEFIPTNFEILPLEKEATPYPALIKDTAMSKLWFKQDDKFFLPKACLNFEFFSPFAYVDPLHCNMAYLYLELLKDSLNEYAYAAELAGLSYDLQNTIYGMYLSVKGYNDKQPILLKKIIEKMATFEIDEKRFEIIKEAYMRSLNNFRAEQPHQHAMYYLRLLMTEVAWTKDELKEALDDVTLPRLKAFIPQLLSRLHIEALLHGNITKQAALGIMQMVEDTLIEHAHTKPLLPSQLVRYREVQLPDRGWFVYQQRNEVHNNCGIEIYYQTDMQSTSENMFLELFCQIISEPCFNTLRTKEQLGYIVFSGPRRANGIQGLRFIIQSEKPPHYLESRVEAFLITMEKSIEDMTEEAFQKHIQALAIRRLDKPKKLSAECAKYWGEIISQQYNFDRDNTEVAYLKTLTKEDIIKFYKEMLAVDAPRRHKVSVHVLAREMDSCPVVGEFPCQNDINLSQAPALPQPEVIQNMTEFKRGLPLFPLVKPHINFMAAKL
As to the kind of experiment: activators of endogenous IDE in HEK cells, dose response, cell-based, fluorescence polarization (AID 588439). It counts as functional.

In experiment [17] the target is T1, Insulin-degrading enzyme. The experiment is described as follows: activators of recombinant IDE enzyme, dose response, counter-screen for IDE activator project, biochemical, fluorescence polarization (AID 588681). A general note: The purpose of a counterscreen is to sort out artefacts and off-target activity.
In experiment [18] the target is T2, Cytochrome P450 1A2 (Homo sapiens, UniProt P05177).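 Also: PubChem cytochrome P450 panel assay, CYP1A2 panel member.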
T2 sequence (P05177 whole entry): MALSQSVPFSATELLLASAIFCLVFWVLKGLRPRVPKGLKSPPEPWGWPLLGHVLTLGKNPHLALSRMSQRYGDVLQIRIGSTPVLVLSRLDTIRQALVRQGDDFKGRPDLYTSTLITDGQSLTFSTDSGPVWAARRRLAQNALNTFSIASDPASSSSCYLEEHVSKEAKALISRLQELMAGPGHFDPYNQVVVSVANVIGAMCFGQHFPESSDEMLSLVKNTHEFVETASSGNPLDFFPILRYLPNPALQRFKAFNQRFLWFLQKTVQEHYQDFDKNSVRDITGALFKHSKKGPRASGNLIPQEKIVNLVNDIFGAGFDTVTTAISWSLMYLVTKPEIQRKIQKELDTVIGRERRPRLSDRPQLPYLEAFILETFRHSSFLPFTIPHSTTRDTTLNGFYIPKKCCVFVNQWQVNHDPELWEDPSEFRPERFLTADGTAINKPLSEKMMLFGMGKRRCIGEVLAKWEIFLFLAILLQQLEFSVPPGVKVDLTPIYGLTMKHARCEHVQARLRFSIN

Experiment [19] is described as follows: cytotoxicity in HEK-293T NF-kB-Luc cells, dose response, cytotoxicity control for B/T-cell NF-kB inhibitor project, cell-based, uHTS hits (AID 489019).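 Also: IC50 reflects cytotoxicity as loss of cell viability.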 In kind it is functional.
Experiment [20] can be described thus: Luminescence Cell-Based Dose Response to Identify Activators of Luciferase Translation or Activity in H4-C Neuroglioblastoma Cells. [Related pubchem assays: 1829 (Project Summary), 1814 (Primary HTS)]. It counts as functional.
Experiment [21] can be described thus: HeLa cell cytotoxicity, dose response, cytotoxicity control for MgcRacGAP inhibitor project (AID 624300). It counts as functional.
Experiment [22] is described as follows: Counterscreen for AddAB inhibitors: absorbance-based bacterial cell-based high throughput dose response assay for inhibitors of bacterial viability. [Related pubchem assays (depositor defined):AID435030, AID449728, AID449731, AID488942, AID488955, AID488956]. It counts as functional.

Where a name gives a salt, the structure may show the parent alone. Active and inactive are the calls of the source.

Sequence of STE20-like serine/threonine-protein kinase (Q9H2G2 whole entry): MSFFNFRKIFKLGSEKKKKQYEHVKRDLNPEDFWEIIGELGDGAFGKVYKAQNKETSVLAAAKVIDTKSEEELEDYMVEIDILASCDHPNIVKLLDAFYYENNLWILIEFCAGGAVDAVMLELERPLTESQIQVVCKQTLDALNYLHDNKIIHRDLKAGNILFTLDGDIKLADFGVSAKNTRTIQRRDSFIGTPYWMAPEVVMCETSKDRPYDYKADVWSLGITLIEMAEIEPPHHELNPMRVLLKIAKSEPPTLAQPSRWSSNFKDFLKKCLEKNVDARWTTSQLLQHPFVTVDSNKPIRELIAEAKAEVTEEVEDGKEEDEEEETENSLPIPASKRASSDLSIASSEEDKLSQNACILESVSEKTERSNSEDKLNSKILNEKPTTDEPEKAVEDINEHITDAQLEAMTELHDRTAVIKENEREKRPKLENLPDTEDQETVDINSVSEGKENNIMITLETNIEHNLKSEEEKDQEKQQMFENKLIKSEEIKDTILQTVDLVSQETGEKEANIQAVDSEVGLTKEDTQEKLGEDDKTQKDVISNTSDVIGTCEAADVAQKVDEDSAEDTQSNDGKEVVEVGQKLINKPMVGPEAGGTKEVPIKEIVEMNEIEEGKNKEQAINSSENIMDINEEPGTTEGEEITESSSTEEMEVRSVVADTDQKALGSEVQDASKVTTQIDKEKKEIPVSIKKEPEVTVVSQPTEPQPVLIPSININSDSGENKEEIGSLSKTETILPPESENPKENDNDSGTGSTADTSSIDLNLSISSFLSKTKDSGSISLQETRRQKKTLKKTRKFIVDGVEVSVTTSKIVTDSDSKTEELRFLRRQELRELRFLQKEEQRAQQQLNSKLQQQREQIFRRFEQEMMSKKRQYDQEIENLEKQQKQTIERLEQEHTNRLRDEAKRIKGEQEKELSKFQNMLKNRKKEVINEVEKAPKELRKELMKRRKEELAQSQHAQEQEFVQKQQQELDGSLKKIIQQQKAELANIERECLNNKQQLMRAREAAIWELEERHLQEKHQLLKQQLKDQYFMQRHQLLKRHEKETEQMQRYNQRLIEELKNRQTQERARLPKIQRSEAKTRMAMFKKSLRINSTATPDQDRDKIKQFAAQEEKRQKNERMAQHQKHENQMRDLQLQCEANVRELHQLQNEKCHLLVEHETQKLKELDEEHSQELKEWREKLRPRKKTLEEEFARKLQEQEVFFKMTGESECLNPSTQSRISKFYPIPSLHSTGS
Sequence of Induced myeloid leukemia cell differentiation protein Mcl-1 (Q07820 whole entry): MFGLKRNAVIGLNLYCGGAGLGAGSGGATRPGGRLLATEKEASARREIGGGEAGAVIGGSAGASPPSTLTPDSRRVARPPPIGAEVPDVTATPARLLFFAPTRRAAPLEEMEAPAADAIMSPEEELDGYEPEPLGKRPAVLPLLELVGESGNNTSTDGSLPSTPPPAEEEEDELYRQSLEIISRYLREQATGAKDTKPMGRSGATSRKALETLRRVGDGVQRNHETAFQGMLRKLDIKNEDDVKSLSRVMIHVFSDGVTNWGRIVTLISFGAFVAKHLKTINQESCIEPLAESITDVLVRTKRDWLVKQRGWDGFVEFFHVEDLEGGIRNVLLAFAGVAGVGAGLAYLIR
Sequence of Activated CDC42 kinase 1 (Q07912 whole entry): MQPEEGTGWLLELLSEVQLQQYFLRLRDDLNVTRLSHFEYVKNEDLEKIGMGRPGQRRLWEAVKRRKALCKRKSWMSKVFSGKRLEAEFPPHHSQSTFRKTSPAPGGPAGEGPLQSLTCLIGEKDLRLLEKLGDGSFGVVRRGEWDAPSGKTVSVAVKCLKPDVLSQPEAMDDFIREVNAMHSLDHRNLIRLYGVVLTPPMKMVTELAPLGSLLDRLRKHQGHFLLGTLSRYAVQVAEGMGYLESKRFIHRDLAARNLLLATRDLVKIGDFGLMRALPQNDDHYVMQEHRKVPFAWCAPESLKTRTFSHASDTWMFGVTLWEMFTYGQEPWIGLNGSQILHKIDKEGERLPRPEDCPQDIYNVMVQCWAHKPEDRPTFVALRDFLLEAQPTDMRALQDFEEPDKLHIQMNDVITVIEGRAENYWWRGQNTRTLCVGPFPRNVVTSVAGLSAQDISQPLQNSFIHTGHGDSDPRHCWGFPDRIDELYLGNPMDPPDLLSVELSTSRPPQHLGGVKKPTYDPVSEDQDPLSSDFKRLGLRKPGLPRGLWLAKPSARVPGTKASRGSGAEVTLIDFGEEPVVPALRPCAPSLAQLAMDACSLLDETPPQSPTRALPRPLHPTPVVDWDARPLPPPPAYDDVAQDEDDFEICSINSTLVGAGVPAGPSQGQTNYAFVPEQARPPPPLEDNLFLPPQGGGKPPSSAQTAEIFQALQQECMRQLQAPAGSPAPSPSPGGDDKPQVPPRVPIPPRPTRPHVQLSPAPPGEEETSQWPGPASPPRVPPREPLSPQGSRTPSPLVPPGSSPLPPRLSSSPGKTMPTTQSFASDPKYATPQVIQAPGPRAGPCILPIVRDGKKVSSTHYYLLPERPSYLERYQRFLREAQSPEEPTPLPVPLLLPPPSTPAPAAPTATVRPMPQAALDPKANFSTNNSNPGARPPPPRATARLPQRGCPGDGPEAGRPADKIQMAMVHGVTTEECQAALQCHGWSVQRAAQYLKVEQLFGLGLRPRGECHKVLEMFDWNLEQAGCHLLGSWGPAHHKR
Sequence of 5-hydroxytryptamine receptor 1A (P08908 whole entry): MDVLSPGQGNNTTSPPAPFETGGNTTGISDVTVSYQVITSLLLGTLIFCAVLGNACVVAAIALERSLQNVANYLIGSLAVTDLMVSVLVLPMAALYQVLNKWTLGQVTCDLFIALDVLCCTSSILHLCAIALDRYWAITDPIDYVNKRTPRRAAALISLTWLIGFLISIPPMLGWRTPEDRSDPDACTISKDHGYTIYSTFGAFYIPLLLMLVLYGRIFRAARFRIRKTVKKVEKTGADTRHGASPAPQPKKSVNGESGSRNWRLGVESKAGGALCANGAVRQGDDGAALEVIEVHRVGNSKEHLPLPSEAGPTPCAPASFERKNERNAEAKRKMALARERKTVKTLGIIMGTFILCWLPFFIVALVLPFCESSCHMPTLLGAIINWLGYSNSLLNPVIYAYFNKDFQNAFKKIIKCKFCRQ

For `CN1CCN(c2nc(C3=C(c4c[nH]c5ccccc45)C(=O)NC3=O)c3ccccc3n2)CC1` [SOTRASTAURIN], the Ki in experiment [1] was > 3.16 µM (inactive); in [2] it was 0.0631 µM (active); in experiment [3], 0.126 µM (active); in experiment [4], > 2.51 µM (inactive); in experiment [5] it was > 3.98 µM (inactive); in experiment [6] it was > 6.31 µM (inactive). The Ki in [7] is > 2 µM (inactive); in experiment [8], > 1.58 µM (inactive); in [9], > 5.01 µM (inactive); in experiment [10] it was > 3.98 µM (inactive); in [11] it was > 3.98 µM (inactive); in [12], > 3.98 µM (inactive).

As to `CC[C@@H](CO)NC(=O)[C@@H]1C=C2c3cccc4c3c(cn4C)C[C@H]2N(C)C1` [METHYSERGIDE MALEATE], the IC50 in experiment [13] is 20.4 µM (not active); in experiment [14], > 50 µM (not active). Further, the half-maximal effective concentration (EC50) in experiment [15] is 1.07 µM (active).

With `CCCCCCCCCCOC(=O)C[n+]1c(COc2ccc(C)cc2)n(C)c2ccccc21`, the results for the EC50 in experiment [16] and in experiment [17] were > 6.08 µM (active) and 16.9 µM (inactive), respectively.

Regarding `CCC(C)n1c(NC(=O)c2ccccc2)c(C#N)c2nc3ccccc3nc21` (configuration not stated), the half-maximal activity concentration (AC50) in experiment [18] is 25.1 µM (inconclusive).

Consider `CCN1/C(=C\c2ccc3ccccc3[n+]2CC)Sc2cc(C)ccc21`, for which the IC50 was > 80 µM (inactive) in experiment [19] and 37.5 µM (inactive) in experiment [22]. The concentration giving a half-maximal response (EC50) in experiment [20] was > 12 µM (not active). The CC50 in [21] is 14.4 µM (active).
